# Measurements taken from patent publication US10597388B2, “Pyridazinone herbicides” (FMC CORPORATION, priority 2014, dated 2020).
# Columns and labels:
# Assay in all cases: Test C greenhouse herbicide test, pre- and postemergence
# Type in all cases: in vivo
# [1] = system: ryegrass, Italian (Italian ryegrass, Lolium multiflorum)
# Procedure, shortened: (§1)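 Visual ratings on a 0 to 100 scale (0 = no effect, 100 = complete control) versus untreated controls, scored 13–15 d after treatment. Soil-applied preemergence to seeded loam/sand; foliar postemergence to 1- to 4-leaf plants (2–18 cm) in peat-vermiculite mix; compounds formulated in solvent plus surfactant.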
# [2] = system: foxtail, giant (giant foxtail, Setaria faberii)
# Procedure, shortened: as §1
# [3] = system: nutsedge, yellow (yellow nutsedge, Cyperus esculentus)
# Procedure, shortened: as §1
# [4] = system: lambsquarters (Chenopodium album)
# Procedure, shortened: as §1
# corn (Zea mays) = system: corn (Zea mays)
# Procedure, shortened: as §1
# [5] = system: waterhemp (common waterhemp, Amaranthus rudis)
# Procedure, shortened: as §1
# [6] = system: velvetleaf (Abutilon theophrasti)
# Procedure, shortened: as §1
# [7] = system: galium (catchweed bedstraw, Galium aparine)
# Procedure, shortened: as §1
# [8] = system: blackgrass (Alopecurus myosuroides)
# Procedure, shortened: as §1
# soybean (Glycine max) = system: soybean (Glycine max)
# Procedure, shortened: as §1
# [9] = system: pigweed (Amaranthus retroflexus)
# Procedure, shortened: as §1
# [10] = system: barnyardgrass (Echinochloa crus-galli)
# Procedure, shortened: as §1
# [11] = system: wheat (winter wheat, Triticum aestivum)
# Procedure, shortened: as §1
# [12] = system: morningglory (Ipomoea coccinea)
# Procedure, shortened: as §1
# [13] = system: crabgrass, large (large crabgrass, Digitaria sanguinalis)
# Procedure, shortened: as §1
# [14] = Postemergence, 8 g ai/ha, scale 0 to 100 (0 no effect, 100 complete control)
# [15] = Postemergence, 16 g ai/ha, scale 0 to 100 (0 no effect, 100 complete control)
# [16] = Postemergence, 31 g ai/ha, 0 to 100 scale (0 no effect, 100 complete control)
# [17] = Preemergence, 16 g ai/ha, scale 0 to 100, 0 is no effect, 100 is complete control
# [18] = Preemergence, 31 g ai/ha, scale 0 to 100, 0 is no effect, 100 is complete control
# [19] = Preemergence, 62 g ai/ha, scale 0 to 100, 0 is no effect, 100 is complete control
# [20] = postemergence, 62 g ai/ha, scale 0 to 100, 0 no effect, 100 complete control
# [21] = Preemergence, 8 g ai/ha, scale 0 to 100, 0 is no effect, 100 is complete control
structure (smiles),measurement,setting,value
Cc1nn(C)c(=O)c(-c2c(C)sc3c(C)cc(Cl)cc23)c1O [Compound 35],"Plant response rating, Ryegrass, Italian",[1]; [14],10
same,"Plant response rating, Ryegrass, Italian",[1]; [15],30
same,"Ryegrass, Italian plant response rating",[1]; [16],35
same,"Plant response rating, Ryegrass, Italian",[1]; [17],50
same,"Plant response rating, Ryegrass, Italian",[1]; [18],65
same,"Plant response rating, Ryegrass, Italian",[1]; [19],70
same,"Ryegrass, Italian plant response rating",[1]; [20],55
same,"Plant response rating, Foxtail, Giant",[2]; [14],25
same,"Plant response rating, Foxtail, Giant",[2]; [15],35
same,"Foxtail, Giant plant response rating",[2]; [16],50
same,"Plant response rating, Foxtail, Giant",[2]; [21],5
same,"Plant response rating, Foxtail, Giant",[2]; [17],25
same,"Plant response rating, Foxtail, Giant",[2]; [18],60
same,"Plant response rating, Foxtail, Giant",[2]; [19],85
same,"Foxtail, Giant plant response rating",[2]; [20],75
same,"Plant response rating, Nutsedge, Yellow",[3]; [14],45
same,"Plant response rating, Nutsedge, Yellow",[3]; [15],60
same,"Nutsedge, Yellow plant response rating",[3]; [16],75
same,"Plant response rating, Nutsedge, Yellow",[3]; [17],20
same,"Plant response rating, Nutsedge, Yellow",[3]; [18],20
same,"Plant response rating, Nutsedge, Yellow",[3]; [19],40
same,"Nutsedge, Yellow plant response rating",[3]; [20],85
same,"Plant response rating, Lambsquarters",[4]; [14],35
same,"Plant response rating, Lambsquarters",[4]; [15],75
same,Lambsquarters plant response rating,[4]; [16],80
same,"Plant response rating, Lambsquarters",[4]; [17],5
same,"Plant response rating, Lambsquarters",[4]; [18],20
same,"Plant response rating, Lambsquarters",[4]; [19],100
same,Lambsquarters plant response rating,[4]; [20],70
same,"Plant response rating, Corn",corn (Zea mays); [14],0
same,"Plant response rating, Corn",corn (Zea mays); [15],0
same,Corn plant response rating,corn (Zea mays); [16],5
same,"Plant response rating, Corn",corn (Zea mays); [21],0
same,"Plant response rating, Corn",corn (Zea mays); [17],0
same,"Plant response rating, Corn",corn (Zea mays); [18],0
same,"Plant response rating, Corn",corn (Zea mays); [19],0
same,Corn plant response rating,corn (Zea mays); [20],5
same,"Plant response rating, Waterhemp",[5]; [14],0
same,"Plant response rating, Waterhemp",[5]; [15],30
same,Waterhemp plant response rating,[5]; [16],25
same,"Plant response rating, Waterhemp",[5]; [17],40
same,"Plant response rating, Waterhemp",[5]; [18],40
same,"Plant response rating, Waterhemp",[5]; [19],50
same,Waterhemp plant response rating,[5]; [20],45
same,"Plant response rating, Velvetleaf",[6]; [14],60
same,"Plant response rating, Velvetleaf",[6]; [15],75
same,Velvetleaf plant response rating,[6]; [16],100
same,"Plant response rating, Velvetleaf",[6]; [17],0
same,"Plant response rating, Velvetleaf",[6]; [18],40
same,"Plant response rating, Velvetleaf",[6]; [19],85
same,Velvetleaf plant response rating,[6]; [20],100
same,"Plant response rating, Galium",[7]; [14],90
same,"Plant response rating, Galium",[7]; [15],90
same,Galium plant response rating,[7]; [16],90
same,"Plant response rating, Galium",[7]; [17],90
same,"Plant response rating, Galium",[7]; [18],90
same,"Plant response rating, Galium",[7]; [19],95
same,Galium plant response rating,[7]; [20],95
same,"Plant response rating, Blackgrass",[8]; [14],0
same,"Plant response rating, Blackgrass",[8]; [15],5
same,Blackgrass plant response rating,[8]; [16],15
same,"Plant response rating, Blackgrass",[8]; [21],5
same,"Plant response rating, Blackgrass",[8]; [17],40
same,"Plant response rating, Blackgrass",[8]; [18],50
same,"Plant response rating, Blackgrass",[8]; [19],55
same,Blackgrass plant response rating,[8]; [20],45
same,"Plant response rating, Soybean",soybean (Glycine max); [14],0
same,"Plant response rating, Soybean",soybean (Glycine max); [15],0
same,Soybean plant response rating,soybean (Glycine max); [16],0
same,"Plant response rating, Soybean",soybean (Glycine max); [17],0
same,"Plant response rating, Soybean",soybean (Glycine max); [18],0
same,"Plant response rating, Soybean",soybean (Glycine max); [19],0
same,Soybean plant response rating,soybean (Glycine max); [20],5
same,"Plant response rating, Pigweed",[9]; [14],35
same,"Plant response rating, Pigweed",[9]; [15],25
same,Pigweed plant response rating,[9]; [16],60
same,"Plant response rating, Pigweed",[9]; [17],75
same,"Plant response rating, Pigweed",[9]; [18],75
same,"Plant response rating, Pigweed",[9]; [19],80
same,Pigweed plant response rating,[9]; [20],55
same,"Plant response rating, Barnyardgrass",[10]; [14],10
same,"Plant response rating, Barnyardgrass",[10]; [15],10
same,Barnyardgrass plant response rating,[10]; [16],20
same,"Plant response rating, Barnyardgrass",[10]; [21],0
same,"Plant response rating, Barnyardgrass",[10]; [17],5
same,"Plant response rating, Barnyardgrass",[10]; [18],5
same,"Plant response rating, Barnyardgrass",[10]; [19],25
same,Barnyardgrass plant response rating,[10]; [20],20
same,"Plant response rating, Wheat",[11]; [14],0
same,"Plant response rating, Wheat",[11]; [15],0
same,Wheat plant response rating,[11]; [16],0
same,"Plant response rating, Wheat",[11]; [17],0
same,"Plant response rating, Wheat",[11]; [18],0
same,"Plant response rating, Wheat",[11]; [19],5
same,Wheat plant response rating,[11]; [20],5
same,"Plant response rating, Morningglory",[12]; [14],100
same,"Plant response rating, Morningglory",[12]; [15],100
same,Morningglory plant response rating,[12]; [16],100
same,"Plant response rating, Morningglory",[12]; [17],25
same,"Plant response rating, Morningglory",[12]; [18],25
same,"Plant response rating, Morningglory",[12]; [19],98
same,Morningglory plant response rating,[12]; [20],100
same,"Plant response rating, Crabgrass, Large",[13]; [14],5
same,"Plant response rating, Crabgrass, Large",[13]; [15],5
same,"Crabgrass, Large plant response rating",[13]; [16],20
same,"Plant response rating, Crabgrass, Large",[13]; [21],0
same,"Plant response rating, Crabgrass, Large",[13]; [17],0
same,"Plant response rating, Crabgrass, Large",[13]; [18],5
same,"Plant response rating, Crabgrass, Large",[13]; [19],5
same,"Crabgrass, Large plant response rating",[13]; [20],20
